From ChEMBL document CHEMBL5131467, “Multivalent peptide dendrimers inhibit the fusion of viral-cellular membranes and the cellular NF-κB signaling pathway” (Eur J Med Chem, 2022)
Active and inactive are the calls of the source. The calls are words filed in the database; no cut-off is given here. Where a SMILES comes first, the peptide text is derived from it. Bridges are numbered along the chain shown (N, C = ends). Roman numbers before positions name the chains, in order. Side-chain parts run from the residue outwards. The star is where a group is joined. Fmoc = O=C(OCC1c2ccccc2-c2ccccc21)*

Legend:
[1] = tested on: Influenza A virus; assay: Antiviral activity against influenza A/Thailand/Kan353/2004 infected in MDCK cells assessed as inhibition of syncytium formation at 2.5 ug/ml incubated for 3 hrs by giemsa staining based assay relative to control; type: functional; set-up: scale not given: the % may be the effect or the level left; details: dose 2.5 µg/ml
[2] = tested on: RAW264.7; assay: Anti-inflammatory activity against mouse RAW264.7 cells assessed as reduction in Influenza A virus (A/Puerto Rico/8/1934(H1N1)) induced TNF alpha level at 1 ug/ml by ELISA method; type: functional; details: dose 1 µg/ml
[3] = tested on: Influenza A virus; assay: Antiviral activity against Influenza A virus (A/Puerto Rico/8/1934(H1N1)) infected in MDCK cells assessed as reduction in virus induced cytopathic effect during infection incubated for 1 hr by MTT assay; type: functional, organism-based
[4] = tested on: RAW264.7; assay: Anti-inflammatory activity against LPS induced mouse RAW264.7 cells assessed as suppression of NF kappa B expression level at 1.5 ug/ml by luciferase reporter assay; type: functional, cell-based; details: dose 1.5 µg/ml
[5] = molecular target: Hemagglutinin (Influenza A virus, UniProt B4URE7); assay: Binding affinity to Influenza A Puerto Rico/8/1934/H1N1 hemagglutin assessed as dissociation constant by surface plasmon resonance assay
[6] = tested on: RAW264.7; assay: Cytotoxicity against mouse RAW264.7 cells assessed as cell viability at lesser than 100 ug/ml by CCK-8 assay; type: toxicity, cell-based; details: dose < 100 µg/ml
[7] = tested on: Influenza A virus; assay: Antiviral activity against Influenza A virus (A/Puerto Rico/8/1934(H1N1)) infected in MDCK cells assessed as reduction in viral nucleoprotein expression level at 2 ug/ml pretreated with compound measured after 24 hrs post infection by indirect immunofluorescence assay; type: functional, organism-based; details: dose 2.0 µg/ml
[8] = tested on: Influenza A virus; assay: Antiviral activity against Influenza A Puerto Rico/8/1934/H1N1 infected in human A549 cells assessed as inhibition of viral replication after 24 hrs by hemagglutination assay; type: functional, organism-based
[9] = tested on: RAW264.7; assay: Anti-inflammatory activity against Influenza A virus (A/Puerto Rico/8/1934(H1N1)) s induced mouse RAW264.7 cells assessed as suppression of NF kappa B expression level 1.5 ug/ml by luciferase reporter assay; type: functional, cell-based; details: dose 1.5 µg/ml
[10] = tested on: RAW264.7; assay: Anti-inflammatory activity against mouse RAW264.7 cells assessed as reduction in influenza A virus induced IL-1 beta level at 1 ug/ml by qRT- PCR; type: functional, cell-based; details: dose 1.0 µg/ml
[11] = tested on: Influenza A virus; assay: Antiviral activity against Influenza A virus (A/Puerto Rico/8/1934(H1N1)) infected in MDCK cells assessed as reduction in viral nucleoprotein expression level at 2 ug/ml pre-treated with virus measured after 24 hrs post infection by indirect immunofluorescence assay; type: functional, organism-based; details: dose 2.0 µg/ml
[12] = tested on: Erythrocyte; assay: Hemolytic activity in chicken erythrocytes at up to 50 uM pre-treated with virus for 30 mins followed by addition of cell measured after 30 mins by microplate reader assay; type: toxicity, cell-based, Gallus gallus; details: 0.5 h
[13] = tested on: Influenza B virus; assay: Antiviral activity against Influenza B virus 699[…] clinical isolate infected in MDCK cells incubated for 1 hr by MTT assay; type: functional, organism-based
[14] = tested on: Influenza A virus; assay: Induction of morphological changes in Influenza A Puerto Rico/8/1934/H1N1 assessed as increase in broken edge of the virus incubated for 30 mins by transmission electron microscopic analysis; type: functional, organism-based; details: dose 10-50 µg/ml, DDE = dose-dependent effect

Sequence of Hemagglutinin (B4URE7 whole entry): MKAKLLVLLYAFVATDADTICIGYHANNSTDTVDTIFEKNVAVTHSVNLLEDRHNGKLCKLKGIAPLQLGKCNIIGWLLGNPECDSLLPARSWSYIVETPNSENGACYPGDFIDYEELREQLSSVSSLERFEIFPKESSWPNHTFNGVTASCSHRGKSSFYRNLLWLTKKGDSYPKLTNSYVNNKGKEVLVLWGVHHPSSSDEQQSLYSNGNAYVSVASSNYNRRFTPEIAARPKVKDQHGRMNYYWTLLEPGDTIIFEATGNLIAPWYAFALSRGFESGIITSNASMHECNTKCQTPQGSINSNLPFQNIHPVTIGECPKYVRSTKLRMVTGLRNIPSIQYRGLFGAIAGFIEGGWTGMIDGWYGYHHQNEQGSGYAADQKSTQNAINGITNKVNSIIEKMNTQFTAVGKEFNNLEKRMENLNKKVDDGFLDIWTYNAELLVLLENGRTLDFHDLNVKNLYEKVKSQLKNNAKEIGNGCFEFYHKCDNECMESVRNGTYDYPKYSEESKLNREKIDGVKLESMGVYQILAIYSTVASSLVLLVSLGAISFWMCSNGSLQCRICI

NCCCC[C@H](NC(=O)OCC1c2ccccc2-c2ccccc21)C(=O)N[C@@H](CCCCN)C(=O)N[C@@H](Cc1c[nH]c2ccccc12)C(=O)N[C@@H](CCCCN)C(=O)NCCCC[C@H](NC(=O)[C@H](CCCCN)NC(=O)[C@H](Cc1c[nH]c2ccccc12)NC(=O)[C@H](CCCCN)NC(=O)[C@H](CCCCN)NC(=O)OCC1c2ccccc2-c2ccccc21)C(=O)NCCCC[C@H](NC(=O)[C@H](CCCCNC(=O)[C@H](CCCCN)NC(=O)[C@H](Cc1c[nH]c2ccccc12)NC(=O)[C@H](CCCCN)NC(=O)[C@H](CCCCN)NC(=O)OCC1c2ccccc2-c2ccccc21)NC(=O)[C@H](CCCCN)NC(=O)[C@H](Cc1c[nH]c2ccccc12)NC(=O)[C@H](CCCCN)NC(=O)[C@H](CCCCN)NC(=O)OCC1c2ccccc2-c2ccccc21)C(=O)NCC(=O)O (I: Fmoc-KKWKK([Lys-Trp-Lys-Lys-Fmoc])KG-OH / II: Fmoc-KKWKK([Lys-Trp-Lys-Lys-Fmoc]); amide I:6-II:C)
Activity [1]: 63% | Activity [2]: 203 pg/mL | IC50 [3]: 310 nM | Activity [4]: Active | Kd [5]: 0.00665 nM | Activity [6]: Non-Toxic | Activity [7]: Active | Activity [8]: Active | Activity [9]: Active | Activity [10]: Active | Activity [11]: Active | Activity [12]: Toxic | IC50 [13]: 320 nM | Activity [14]: Dde
